Test results: EP4245832B1, “DETERGENT COMPOSITIONS” (The Procter & Gamble Company, priority 2022, dated 2023)

assay: Laundry test followed by SPME GC/MS headspace analysis of cotton tracers; settings: headspace of the perfume ingredient above wet cotton tracers, Ex 1 (PQ22) versus Ex A (nil-PQ22)
Method: 100% cotton fabric cut into 30x30cm squares were washed in a mixed cotton/polycotton load of total 3kg in a front load washing machine (Miele 1935) at 40°C cotton short setting, with 2 rinses, using 2.67 mmol/L Ca (15 gpg) water hardness. A 55 ml dose of the respective detergent was added to a dosing cup and placed inside the washing machine. After the wash cycle was finished, the full load was tumbled (using a Miele Novotronic, type: TD7634) for about 1 hour. Table 1: Inventive detergent composition (Ex 1) and comparative laundry detergent composition (Ex A) used in the laundry test:
The load was washed and dried three consecutive times, then placed back into a washing machine After a fourth wash cycle, the wet cotton tracers were separated and packed in aluminium foil until they were ready to be analysed for headspace.
The headspace was analysed using solid […] (SPME) chromatography using the following procedure: • 1. One piece of 4x4 cm cotton tracers were transferred to 25 ml headspace vials. • 2. The fabric samples were equilibrated for 10 minutes at 65°C. • 3. The headspace above the fabrics was sampled via SPME (50/30µm DVB/Carboxen/PDMS) for 5 minutes. • 4. The SPME fiber was subsequently thermally desorbed into the GC. • 5. The analytes were analyzed by GC/MS (GC: Agilent 8890 and MS: Agilent 5977B MS) in full scan mode. The total perfume HS response and perfume headspace composition above the tested legs could be determined.

Compared with “3-(3,3-dimethyl-2,3-dihydro-1H-inden-5-yl)propanal mixt. wth 3-(1,1-dimethyl-2,3-dihydro-1H-inden-5-yl)propanal [Neo Hivernal]”, `C=CCOC(=O)COCCC(C)C` [Allyl amyl glycolate, allyl 2-(isopentyloxy)acetate] is higher in “% increase Ex 1 vs Ex A” value: -58% for the first, 2003% for the second.

First: CC1=CCC2CC1C2(C)C (stereo not drawn) [Alpha pinene, 2,6,6-trimethylbicyclo(3.1.1)hept-2-ene]
Second: COc1ccc(C=O)cc1 [Anisic aldehyde, 4-methoxybenzaldehyde]
The “% increase Ex 1 vs Ex A” value of the first is lower: -33% for the first, 854% for the second.

Compared with `CC(=O)OCc1ccccc1` [Benzyl acetate, benzyl acetate], `COc1ccc2ccccc2c1` [Beta napthol methyl ether, 2-methoxynaphthalene] is lower in “% increase Ex 1 vs Ex A” value: 1840% for the first, 104% for the second.

Compared with `CC(C)=CCCC(C)CCO` (stereo not shown) [Citronellol, 3,7-dimethyloct-6-en-1-ol], `CC(C)=CCCC(C)CC#N` (stereo not shown) [Citronellyl nitrile, 3,7-dimethyloct-6-enenitrile] is higher in “% increase Ex 1 vs Ex A” value: 108% for the first, 457% for the second.

Compared with `CC1/C=C/CCCCCCCCCCC(=O)C1` (stereo not shown) [Delta muscenone, (E)-3-methylcyclopentadec-4-en-1-one], `CCOC(=O)C1=C(C)C=CCC1(C)C` [Ethyl safranate, ethyl 2,6,6-trimethylcyclohexa-1,3-diene-1-carboxylate] is higher in “% increase Ex 1 vs Ex A” value: -27% for the first, 26% for the second.

Going from `O=C1CCCCCCCCCCCCCCO1` [Exaltolide total, oxacyclohexadecan-2-one] to `CC(C)c1cccc(C(C)CC=O)c1` (stereo not shown) [Florhydral, 3-(3-isopropylphenyl)butanal], the “% increase Ex 1 vs Ex A” value falls from -33% to -60%.

First: CCC(=O)OCC(C)(C)OC(C)C1CCCC(C)(C)C1 (stereo not shown) [Helvetolide, 2-(1-(3,3-dimethylcyclohexyl)ethoxy)-2-methylpropyl propionate]
Second: CC(=O)/C=C/C1=C(C)CCCC1(C)C [Ionone beta, (E)-4-(2,6,6-trimethylcyclohex-1-en-1-yl)but-3-en-2-one]
The “% increase Ex 1 vs Ex A” value of the first is lower: -50% for the first, 18% for the second.

First: CCCC(=O)OCCC(C)C [Isoamyl butyrate, isopentyl butyrate]
Second: C=C(C)C1CC=C(C)C(=O)C1 (stereo not shown) [Laevo carvone, 2-methyl-5-(prop-1-en-2-yl)cyclohex-2-en-1-one]
The “% increase Ex 1 vs Ex A” value of the first is higher: 8685% for the first, 468% for the second.

Compared with `CC(C=O)Cc1ccc(C(C)(C)C)cc1` (stereo not shown) [Lilial, 3-(4-(tert-butyl)phenyl)-2-methylpropanal], `C=CC(C)(O)CCC=C(C)C` (stereo not shown) [Linalool, 3,7-dimethylocta-1,6-dien-3-ol] is higher in “% increase Ex 1 vs Ex A” value: -55% for the first, 42% for the second.

Going from `C=CC(C)(CCC=C(C)C)OC(=O)CC` (stereo not shown) [Linalyl propionate, 3,7-dimethylocta-1,6-dien-3-yl propionate] to `CC(=O)c1ccc2ccccc2c1` [Methyl Beta-napthyl ketone, 1-(naphthalen-2-yl)ethan-1-one], the “% increase Ex 1 vs Ex A” value rises from -50% to 268%.

Going from `COC(=O)c1ccccc1O` [Methyl salicylate, methyl 2-hydroxybenzoate] to `CCCCCCCC=O` [Octyl Aldehyde, octanal], the “% increase Ex 1 vs Ex A” value falls from 915% to 16%.

Going from `COc1ccc(C)cc1` [Para cresyl methyl ether, 1-methoxy-4-methylbenzene] to `CC(C)(O)CCc1ccccc1` [Phenyl ethyl dimethyl carbinol, 2-methyl-4-phenylbutan-2-ol], the “% increase Ex 1 vs Ex A” value falls from 13731% to 1106%.

With `CCOC(=O)C1OC1(C)c1ccccc1` (stereo not shown) [Ethyl methyl phenyl glycidate, ethyl 3-methyl-3-phenyloxirane-2-carboxylate] the “% increase Ex 1 vs Ex A” value was “inf”.
